Test results as given in patent US20100010098A1, “POLYMORPHS OF RASAGILINE HYDROCHLORIDE” (priority 2008, published 2010).
Counter-ions that a name gives are not always drawn. Like-named read-outs stand apart in the source and are kept apart here.

Legend:
[1] = solid state; suspension with a liquid; compared with Form I
Experimental: 9 mg of rasagiline HCl Form I was suspended in 0.15 ml 2-PrOH and stirred for 11 days at 70° C.
b) 50 mg of rasagiline HCl Form I was suspended in 0.23 ml 2-PrOH and stirred for 7 days at 5° C.
20 mg of Form II was added to a suspension of 1.49 g Form III in 6 ml 2-PrOH. After 4 days solid material was isolated by filtration, washed with diethyl ether and was dried overnight at 40° C. in vacuo.

[2] = after storage for 4 weeks at 55° C./90% relative humidity

| Compound | relative stability of the polymorphic form [1] | Chemical Purity (HPLC) ([2]; hydrochloride) | Color Change ([2]; hydrochloride) | Water uptake ([2]; hydrochloride) | Chemical Purity (HPLC) [2] | Color Change [2] | Water uptake [2] |
| --- | --- | --- | --- | --- | --- | --- | --- |
| C#CCN[C@@H]1CCc2ccccc21 [Form II rasagiline hydrochloride, rasagiline hydrochloride] | more stable in the solid state than the crystalline Form I | 100% | No | No | – | – | – |
| C#CCN[C@@H]1CCc2ccccc21 [rasagiline mesylate, reference compound] | – | – | – | – | 97.1% | Yes, brown color | Yes |
